The text below walks through data of patent publication US4423076A, “1-Branched-alkyl-3-(2-haloethyl)-3-nitrosoureas as novel antitumor agents” (National Foundation for Cancer Research, Inc., priority 1979, dated 1983).

The structures appear in SMILES notation.

Series [1] can be described thus: Solubility. It counts as physicochemical. The settings on record: prevented its clinical evaluation.
The nature of series [2]: Toxicity of single-dose NCNU ip in normal mice (deaths). The arrangement: species or system CDFl mice. The note with it: in vivo; for mortality at 192 h: at day 8; for mortality at 24 h: at day 1; for mortality at 216 h: at day 9. The procedure: Toxicity studies were conducted by injecting a single dose of NCNU ip.
Toxicity of NCNU in CDFl Normal Mice

The subject of series [3] is Yancey's lymphocytic leukemia (YLL). Description: NCNU against Yancey's lymphocytic leukemia, treatment begun day 2 or 7, several schedules. It counts as in vivo, mouse. The procedure:
(§1) The effect of NCNU was tested against Yancey's lymphocytic leukemia (YLL) which had been implanted subcutaneously (sc) two days before injection of the drug. The single injection of 0.1 ml of a solution of one spleen of a YLL bearing mouse homogenized in 10 ml Locke's Solution was given either intraperitoneally or subcutaneously.
The study of Experiment III was conducted with NCNU treatment beginning at 2 or 7 days after implantation of YLL tumors. NCNU injection was ip or sc on a schedule of one time per week for 4 weeks, twice per week for 4 weeks, or a single dose.
Effects of NCNU Against Yancey's
(§2) experiments are continuing.

Series [4] shares this test system. Description: Single-dose treatment against two-day Yancey's lymphocytic leukemia (increase in median life span). Format: in vivo, mouse. The procedure:
as §1
(§3) Effects of Single-Dose Treatment with NCNU Against
Two-Day Yancey's Lymphocytic Leukemia
as §2

In series [5] the test system is murine leukemia L1210 tumor cells. Description: Single-dose treatment against two-day murine leukemia L1210 (increase in median lifespan). It counts as in vivo, CDF1 mice. The procedure: (§4) A single dose of 1-neopentyl-3-(2-chloroethyl)-3-nitrosourea (NCNU) was injected intraperitoneally (ip) in CDF1 mice which had been implanted ip two days earlier with approximately 10×10^5 murine leukemia L1210 tumor cells. The NCNU was dissolved in emulphor EL-620 (polyoxyethylated; GAF Corporation, New York, N.Y.) and raised to the desired volume with 0.85% sodium chloride.
as §3
Two-Day Murine Leukemia L1210
as §2

Series [6] relates to various forms of cancer. Put plainly: Human studies, patients having advanced stages of various forms of cancer. Format: in vivo. The settings on record: two 25 mg/kg sc doses or iv, total 50 mg/kg daily. The procedure: Patients having advanced stages of various forms of cancer are treated by subcutaneous injection of two 25 mg/kg doses of NCNU in water or by intravenous administration of 1 milligram NCNU/ml 0.9% saline to provide a total daily dose of 50 mg/kg; a full clinical examination is carried out prior to and after administration. Tumor growth is measured where possible by palpition, X-rays and photography.

The subject of series [7] is murine leukemia P388 tumor cells. Put plainly: Single-dose treatment against two-day murine leukemia P388 (increase in median lifespan). It counts as in vivo, CDF1 mice. The procedure:
as §4
The study of Experiment I was conducted using approximately 5×10^5 murine leukemia P388 tumor cells (0.1 ml of a 1:100 dilution).
as §3
Two-Day Murine Leukemia P388
as §2

Series [8] in a line: Chemical stability of isocyanates. The settings on record: for half-life: physiological pH and temperature; for stability (hydrolysis): water-acetone (1:3), 57° C., three-day period, pH 6.0. Format: physicochemical. The procedure: Both have half-lives of greater than 30 minutes at physiological pH and temperature.

With `CC(C)(C)CNC(=O)N(CC(C)(C)C)N=O`, the solubility result in series [1] is “limited solubility”.
In the case of `CC(C)(C)CNC(=O)N(CCCl)N=O` [NCNU, 1-neopentyl-3-(2-chloroethyl)-3-nitrosourea], in series [2] (1.0 mg/mouse ip), the mortality amounted to 0%. The mortality at 312 h in series [2] (2.0 mg/mouse ip, at day 13, others survived) was determined as 60%; in series [2] (mouse, 100 mg/kg ip, at day 13), 100%. The molecule also gave a mortality at 240 h in series [2] (4.0 mg/mouse ip, at day 10) of 100%. Besides, the mortality at 192 h turned out to be 100% in series [2] (8.0 mg/mouse ip) and 100% in series [2] (mouse, 250 mg/kg ip). In series [2] (16.0 mg/mouse ip, at day 4), this molecule displayed a mortality at 96 h of 100%. Moreover, the mortality at 24 h in series [2] (20.0 mg/mouse ip) worked out at 100%; in series [2] (32.0 mg/mouse ip) it was 100%; in series [2] (mouse, 1000 mg/kg ip), 100%. This molecule had a mortality at 264 h in series [2] (mouse, 150 mg/kg ip, at day 11) of 100%. In addition, the mortality at 216 h in series [2] (mouse, 200 mg/kg ip) was found to be 100%; in series [2] (mouse, 225 mg/kg ip) it was 100%. This molecule had a mortality at 120 h in series [2] (mouse, 500 mg/kg ip, at day 5) of 100%. In series [2] (mouse, 750 mg/kg ip, at day 2), this molecule registered a mortality at 48 h of 100%. The “% ILS” value in series [3] (0.5 mg/mouse ip, 1x/wk for 4 wks, begun day 2) is recorded as 28.6%; in series [3] (0.5 mg/mouse ip, once, begun day 7), 6.7%; in series [3] (0.5 mg/mouse sc, 1x/wk for 4 wks, begun day 2, + = animals not yet all died) it was not below 114.3%; in series [3] (0.5 mg/mouse sc, once, begun day 7) it was 6.7%; in series [3] (1.0 mg/mouse ip, 1x/wk for 4 wks, begun day 2), 178.6%; in series [3] (1.0 mg/mouse ip, once, begun day 7), 66.6%. Also, the “% ILS” value in series [3] (1.0 mg/mouse sc, 1x/wk for 4 wks, begun day 2, + = animals not yet all died) is given as not below 207.1%; in series [3] (1.0 mg/mouse sc, once, begun day 7), 66.6%; in series [3] (2.0 mg/mouse ip, 1x/wk for 4 wks, begun day 2) it was 14.3%; in series [3] (2.0 mg/mouse sc, 1x/wk for 4 wks, begun day 2, + = animals not yet all died), not below 264%; in series [3] (25 mg/kg ip, 1x/wk for 4 wks, begun day 2, + = animals not yet all died), not below 100%; in series [3] (25 mg/kg ip, 2x/wk for 4 wks, begun day 2, + = animals not yet all died) it was not below 100%. The “% ILS” value in series [3] (25 mg/kg sc, 1x/wk for 4 wks, begun day 2, + = animals not yet all died) is not below 100%; in series [3] (25 mg/kg sc, 2x/wk for 4 wks, begun day 2, + = animals not yet all died), not below 100%; in series [3] (50 mg/kg ip, 1x/wk for 4 wks, begun day 2, + = animals not yet all died), not below 100%; in series [3] (50 mg/kg ip, 2x/wk for 4 wks, begun day 2, + = animals not yet all died), not below 100%; in series [3] (50 mg/kg sc, 1x/wk for 4 wks, begun day 2, + = animals not yet all died), not below 100%; in series [3] (50 mg/kg sc, 2x/wk for 4 wks, begun day 2, + = animals not yet all died), not below 100%. For the same molecule, the “% ILS” value in series [3] (75 mg/kg ip, 1x/wk for 4 wks, begun day 2, + = animals not yet all died) was not below 100%; in series [3] (75 mg/kg ip, 2x/wk for 4 wks, begun day 2) it was 66.6%; in series [3] (75 mg/kg sc, 1x/wk for 4 wks, begun day 2, + = animals not yet all died) it was not below 100%; in series [3] (75 mg/kg sc, 2x/wk for 4 wks, begun day 2) it was 0%; in series [4] (0.5 mg/mouse ip, single dose (first entry)), 14.3%; in series [4] (0.5 mg/mouse ip, single dose (second entry)), 6.7%. The “% ILS” value came out at 35.7% in series [4] (0.5 mg/mouse sc, single dose (first entry)); 13.3% in series [4] (0.5 mg/mouse sc, single dose (second entry)); 64.3% in series [4] (1.0 mg/mouse ip, single dose (first entry)); 33.3% in series [4] (1.0 mg/mouse ip, single dose (second entry)); 64.3% in series [4] (1.0 mg/mouse sc, single dose (first entry)); 20.0% in series [4] (1.0 mg/mouse sc, single dose (second entry)). For the same molecule, the “% ILS” value in series [4] (2.0 mg/mouse ip, single dose, + = animals not yet all died) is not below 264%; in series [4] (2.0 mg/mouse sc, single dose) it was 78.0%; in series [4] (25 mg/kg ip, single dose), 13.3%; in series [4] (25 mg/kg sc, single dose), 6.6%; in series [4] (50 mg/kg ip, single dose) it was 60.0%; in series [4] (50 mg/kg sc, single dose) it was 60.0%. In addition, the “% ILS” value in series [4] (75 mg/kg ip, single dose) is 66.6%; in series [4] (75 mg/kg sc, single dose), 73.3%; in series [7] (0.5 mg/mouse), 41.5%; in series [7] (1.0 mg/mouse) it was 91.7%; in series [7] (2.0 mg/mouse, + = animals not yet all died) it was not below 483%. The “% ILS (increase in median lifespan)” value in series [5] (25 mg/kg ip) is reported as 37.5%; in series [5] (50 mg/kg ip), 100%; in series [5] (75 mg/kg ip, + = animals not yet all died), not below 275%; in series [5] (100 mg/kg ip, + = animals not yet all died) it was not below 275%. Further, the inflammation result in series [6] is recorded as “Inflammation gradually subsides”. Also, in series [6], the tumor size entry is “tumor size frequently decreases”. Moreover, the clinical improvement entry in series [6] (within several days) is recorded as “marked clinical improvement within several days”.
As for `CC(C)(C)CCN=C=O` [neohexyl isocyanate], in series [8], the half-life was more than 30 min and the “stability (hydrolysis)” value is given as “remarkably stable”.
The matching figures for `CC(C)(C)CN=C=O` [neopentyl isocyanate]: more than 30 min and “remarkably stable”.
